Structures are written as SMILES.

We go through six molecules from ChEMBL document CHEMBL5532728, “Novel Tyrosine Kinase 2 Inhibitors for Treating Autoimmune and Inflammatory Diseases” (ACS Med Chem Lett, 2024).

Non-receptor tyrosine-protein kinase TYK2, sequence (P29597 whole entry, the tested form may be a part): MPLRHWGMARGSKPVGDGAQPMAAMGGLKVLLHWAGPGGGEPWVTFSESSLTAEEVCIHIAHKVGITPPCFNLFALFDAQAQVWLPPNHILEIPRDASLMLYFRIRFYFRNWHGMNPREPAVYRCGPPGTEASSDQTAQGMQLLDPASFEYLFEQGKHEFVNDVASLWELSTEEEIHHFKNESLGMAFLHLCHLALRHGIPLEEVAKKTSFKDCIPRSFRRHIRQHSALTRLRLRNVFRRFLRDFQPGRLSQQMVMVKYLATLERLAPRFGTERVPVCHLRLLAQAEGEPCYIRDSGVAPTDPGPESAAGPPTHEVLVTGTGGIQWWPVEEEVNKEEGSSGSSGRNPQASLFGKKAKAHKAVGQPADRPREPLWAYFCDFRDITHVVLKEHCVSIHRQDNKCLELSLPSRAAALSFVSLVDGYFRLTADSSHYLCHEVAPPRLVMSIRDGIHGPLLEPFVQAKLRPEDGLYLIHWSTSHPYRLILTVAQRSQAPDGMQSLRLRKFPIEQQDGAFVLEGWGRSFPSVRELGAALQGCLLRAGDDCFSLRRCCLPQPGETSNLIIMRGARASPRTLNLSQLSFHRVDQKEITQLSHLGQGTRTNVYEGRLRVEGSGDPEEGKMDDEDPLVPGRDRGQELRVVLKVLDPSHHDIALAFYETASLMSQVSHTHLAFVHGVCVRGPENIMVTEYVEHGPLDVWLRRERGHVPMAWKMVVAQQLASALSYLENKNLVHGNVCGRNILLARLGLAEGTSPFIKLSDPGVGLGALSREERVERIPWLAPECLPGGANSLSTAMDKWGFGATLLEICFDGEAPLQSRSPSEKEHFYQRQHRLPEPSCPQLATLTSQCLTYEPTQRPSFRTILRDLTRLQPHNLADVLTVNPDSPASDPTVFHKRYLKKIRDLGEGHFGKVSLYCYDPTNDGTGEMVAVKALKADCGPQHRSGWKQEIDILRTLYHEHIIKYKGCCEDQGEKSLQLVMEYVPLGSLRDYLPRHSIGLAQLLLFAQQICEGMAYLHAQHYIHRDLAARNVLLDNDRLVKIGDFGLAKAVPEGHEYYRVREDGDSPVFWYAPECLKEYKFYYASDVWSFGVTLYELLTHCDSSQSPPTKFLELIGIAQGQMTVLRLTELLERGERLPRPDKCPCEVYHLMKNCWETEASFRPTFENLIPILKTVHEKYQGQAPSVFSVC

The test has as its target Non-receptor tyrosine-protein kinase TYK2 (Homo sapiens, UniProt P29597). The test is described as follows: Inhibition of 10-His tagged recombinant TYK2 JH2 domain (575 to 876 residues) (unknown origin) incubated for 60 mins by TR-FRET assay.
One may read the IC50 as the concentration needed to halve the response being measured. For the molecule `CC(=O)Nc1cc2c(cn1)C1(CC1)CN2c1cc(C)nc(C2CCC2)n1`, the IC50 is not above 0.01 µM. Turning to `CC(=O)Nc1cc2c(cn1)C1(CC1)CN2c1cc(NC2CCSC2)nc(C(C)(F)F)n1` (stereo unspecified), the IC50 was not above 0.01 µM. Next, `CSc1nc(C)cc(N2CC3(CC3)c3cnc(NC(C)=O)cc32)n1`: not above 0.01 µM. With `CC(=O)Nc1cc2c(cn1)C1(CC1)CN2c1nc(C2CCOC2)c(C)s1` (stereo unspecified) the figure was not above 0.01 µM; with `CC(=O)Nc1cc2c(cn1)C1(CC1)CN2c1cc(-c2ncn(C)n2)nc(C(C)(F)F)n1`, not above 0.01 µM. With `CC(=O)Nc1cc2c(cn1)C1(CC1)CN2c1cccc(S(C)(=O)=O)n1` the figure was not above 0.01 µM.
